Experimental data from PubChem BioAssay (NCI).
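Growth conditions: 96-well plates. Treatment: test compound, 48 hours, 5 concentrations. Analysis: linear interpolation between bracketing concentrations; unreached endpoints set to highest concentration. Definition used: TGI = concentration required for complete inhibition of growth.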

How the values were obtained:
Experiment in all cases: inhibition of tumour cell growth, NCI panel, 48 h
[1] = system: DMS 114 small cell lung
[2] = system: SR leukemia
[3] = system: DMS 273 small cell lung
[4] = system: UACC-257 melanoma
[5] = system: M14 melanoma
[6] = system: OVCAR-8 ovarian
[7] = system: SNB-78 CNS
[8] = system: COLO 205 colon
[9] = system: SN12C renal
[10] = system: HOP-62 NSCLC
[11] = system: SK-MEL-2 melanoma
[12] = system: RPMI-8226 leukemia
[13] = system: 786-0 renal
[14] = system: DLD-1 colon
[15] = system: TK-10 renal
[16] = system: HL-60(TB) leukemia
[17] = system: HCC-2998 colon
[18] = system: HT29 colon
[19] = system: NCI-H460 lung
[20] = system: OVCAR-4 ovarian
[21] = system: KM12 colon
[22] = system: UACC-62 melanoma
[23] = system: UO-31 renal
[24] = system: K-562 leukemia
[25] = system: NCI-H522 lung
[26] = system: NCI-H23 lung
[27] = system: HOP-18 NSCLC
[28] = system: SNB-75 CNS
[29] = system: IGROV1 ovarian
[30] = system: LOX IMVI melanoma
[31] = system: MALME-3M melanoma
[32] = system: RXF-631 renal
[33] = system: MOLT-4 leukemia
[34] = system: U251 CNS
[35] = system: OVCAR-3 ovarian
[36] = system: EKVX NSCLC
[37] = system: SK-MEL-28 melanoma
[38] = system: A549 NSCLC
[39] = system: HOP-92 NSCLC
[40] = system: SF-268 CNS
[41] = system: SF-295 CNS
[42] = system: KM20L2 colon
[43] = system: HCT-15 colon
[44] = system: HCT-116 colon
[45] = system: A498 renal
[46] = system: M19-MEL melanoma
[47] = system: CCRF-CEM leukemia
[48] = system: CAKI-1 renal
[49] = system: ACHN renal
[50] = system: SF-539 CNS
[51] = system: SK-MEL-5 melanoma
[52] = system: SW-620 colon
[53] = system: NCI-H226 lung
[54] = system: SK-OV-3 ovarian
[55] = system: LXFL 529 NSCLC
[56] = system: SNB-19 CNS
[57] = system: OVCAR-5 ovarian
[58] = system: RXF 393 renal
[59] = system: XF 498 CNS

Structure (SMILES): CC(C)CN(CC(C)C)C(=O)C1CCCC[C@@H]1C(=O)O (stereo partly specified)
- TGI [1]: > 100 µM
- TGI [2]: > 100 µM
- TGI [3]: > 100 µM
- TGI [4]: > 100 µM
- TGI [5]: > 100 µM
- TGI [6]: > 100 µM
- TGI [7]: > 100 µM
- TGI [8]: > 100 µM
- TGI [9]: > 100 µM
- TGI [10]: > 100 µM
- TGI [11]: > 100 µM
- TGI [12]: > 100 µM
- TGI [13]: > 100 µM
- TGI [14]: > 100 µM
- TGI [15]: > 100 µM
- TGI [16]: > 100 µM
- TGI [17]: > 100 µM
- TGI [18]: > 100 µM
- TGI [19]: > 100 µM
- TGI [20]: > 100 µM
- TGI [21]: > 100 µM
- TGI [22]: > 100 µM
- TGI [23]: > 100 µM
- TGI [24]: > 100 µM
- TGI [25]: > 100 µM
- TGI [26]: > 100 µM
- TGI [27]: > 100 µM
- TGI [28]: > 100 µM
- TGI [29]: > 100 µM
- TGI [30]: > 100 µM
- TGI [31]: > 100 µM
- TGI [32]: > 100 µM
- TGI [33]: > 100 µM
- TGI [34]: > 100 µM
- TGI [35]: > 100 µM
- TGI [36]: > 100 µM
- TGI [37]: > 100 µM
- TGI [38]: > 100 µM
- TGI [39]: > 100 µM
- TGI [40]: > 100 µM
- TGI [41]: > 100 µM
- TGI [42]: > 100 µM
- TGI [43]: > 100 µM
- TGI [44]: > 100 µM
- TGI [45]: > 100 µM
- TGI [46]: > 100 µM
- TGI [47]: > 100 µM
- TGI [48]: > 100 µM
- TGI [49]: > 100 µM
- TGI [50]: > 100 µM
- TGI [51]: > 100 µM
- TGI [52]: > 100 µM
- TGI [53]: > 100 µM
- TGI [54]: > 100 µM
- TGI [55]: > 100 µM

Structure (SMILES): O=C(/C=C/c1ccccc1Cl)c1ccc(Cl)cc1Cl
- TGI [1]: 26.3 µM
- TGI [3]: 29.6 µM
- TGI [4]: 29.7 µM
- TGI [56]: 28.8 µM
- TGI [5]: 32 µM
- TGI [6]: 29.3 µM
- TGI [7]: 36.2 µM
- TGI [8]: 32.1 µM
- TGI [9]: 32.2 µM
- TGI [10]: 42.1 µM
- TGI [12]: 37.5 µM
- TGI [13]: 31.4 µM
- TGI [14]: 32.3 µM
- TGI [15]: 31.7 µM
- TGI [16]: 46.3 µM
- TGI [17]: 33.1 µM
- TGI [18]: 28 µM
- TGI [19]: 31.6 µM
- TGI [20]: 29.7 µM
- TGI [21]: 24.1 µM
- TGI [22]: 27.6 µM
- TGI [57]: 30.8 µM
- TGI [23]: 36.9 µM
- TGI [24]: 11.7 µM
- TGI [26]: 37.9 µM
- TGI [27]: 31.2 µM
- TGI [28]: 37.4 µM
- TGI [29]: 27.6 µM
- TGI [31]: 33.5 µM
- TGI [32]: 34.6 µM
- TGI [33]: 26 µM
- TGI [34]: 25.5 µM
- TGI [35]: 31.6 µM
- TGI [36]: 32.9 µM
- TGI [37]: 24.8 µM
- TGI [38]: 39.8 µM
- TGI [39]: 39 µM
- TGI [40]: 31.3 µM
- TGI [41]: 36.3 µM
- TGI [42]: 28.3 µM
- TGI [43]: 25.4 µM
- TGI [44]: 20.5 µM
- TGI [45]: 33.3 µM
- TGI [46]: 31.9 µM
- TGI [47]: 17.4 µM
- TGI [48]: 28.4 µM
- TGI [49]: 32 µM
- TGI [50]: 38.5 µM
- TGI [51]: 28.6 µM
- TGI [52]: 3.36 µM
- TGI [53]: 31.5 µM
- TGI [54]: 35.6 µM
- TGI [55]: 29.7 µM

Structure (SMILES): O=c1c2ccccc2nc(-c2cccc(Cl)c2)n1NCC1(O)OCC(O)C(O)C1O (stereo unspecified)
- TGI [1]: > 100 µM
- TGI [2]: > 100 µM
- TGI [3]: > 100 µM
- TGI [4]: > 100 µM
- TGI [56]: > 100 µM
- TGI [5]: > 100 µM
- TGI [6]: > 100 µM
- TGI [7]: > 100 µM
- TGI [8]: > 100 µM
- TGI [9]: > 100 µM
- TGI [11]: > 100 µM
- TGI [12]: > 100 µM
- TGI [13]: > 100 µM
- TGI [16]: > 100 µM
- TGI [18]: > 100 µM
- TGI [19]: > 100 µM
- TGI [20]: > 100 µM
- TGI [21]: > 100 µM
- TGI [22]: > 100 µM
- TGI [57]: > 100 µM
- TGI [23]: > 100 µM
- TGI [24]: > 100 µM
- TGI [25]: > 100 µM
- TGI [26]: > 100 µM
- TGI [30]: > 100 µM
- TGI [31]: > 100 µM
- TGI [32]: > 100 µM
- TGI [33]: > 100 µM
- TGI [34]: > 100 µM
- TGI [35]: > 100 µM
- TGI [36]: > 100 µM
- TGI [37]: > 100 µM
- TGI [38]: > 100 µM
- TGI [40]: > 100 µM
- TGI [41]: > 100 µM
- TGI [42]: > 100 µM
- TGI [43]: > 100 µM
- TGI [44]: > 100 µM
- TGI [45]: > 100 µM
- TGI [46]: > 100 µM
- TGI [47]: > 100 µM
- TGI [48]: > 100 µM
- TGI [58]: > 100 µM
- TGI [49]: > 100 µM
- TGI [50]: > 100 µM
- TGI [52]: > 100 µM
- TGI [53]: > 100 µM
- TGI [54]: > 100 µM
- TGI [55]: > 100 µM

Structure (SMILES): Cc1ccc(Oc2ccc([N+](=O)[O-])cc2[N+](=O)[O-])c(C)c1
- TGI [1]: > 100 µM
- TGI [3]: > 100 µM
- TGI [4]: 99.6 µM
- TGI [5]: > 100 µM
- TGI [6]: > 100 µM
- TGI [7]: > 100 µM
- TGI [9]: > 100 µM
- TGI [10]: > 100 µM
- TGI [11]: > 100 µM
- TGI [12]: 97.7 µM
- TGI [13]: > 100 µM
- TGI [14]: > 100 µM
- TGI [15]: > 100 µM
- TGI [16]: 65.2 µM
- TGI [17]: > 100 µM
- TGI [18]: 59.3 µM
- TGI [19]: > 100 µM
- TGI [20]: > 100 µM
- TGI [22]: > 100 µM
- TGI [57]: > 100 µM
- TGI [23]: > 100 µM
- TGI [24]: > 100 µM
- TGI [26]: > 100 µM
- TGI [28]: > 100 µM
- TGI [29]: > 100 µM
- TGI [31]: > 100 µM
- TGI [32]: > 100 µM
- TGI [33]: 79.4 µM
- TGI [34]: > 100 µM
- TGI [35]: > 100 µM
- TGI [36]: > 100 µM
- TGI [37]: > 100 µM
- TGI [38]: > 100 µM
- TGI [41]: > 100 µM
- TGI [43]: > 100 µM
- TGI [44]: > 100 µM
- TGI [45]: > 100 µM
- TGI [46]: > 100 µM
- TGI [47]: > 100 µM
- TGI [48]: > 100 µM
- TGI [58]: 89.7 µM
- TGI [49]: > 100 µM
- TGI [50]: > 100 µM
- TGI [51]: 50 µM
- TGI [59]: > 100 µM
- TGI [52]: > 100 µM
- TGI [53]: > 100 µM
- TGI [54]: > 100 µM
- TGI [55]: > 100 µM
